Measured values: patent US4551460A, “Pyrido[2,1-b]quinazoline derivatives useful as agents for treatment of allergic conditions and vascular disorders involving thrombosis” (priority 1983, dated 1985)

Test system: PAF induced mortality
Assay: Prevention of mortality induced by platelet aggregating factor (PAF)
Assay type: in vivo, mice (CF1)
Details: Mus musculus, Platelet; oral, PAF 0.10 mg/kg i.v.; read-out: oral ID50 (Inhibiting Dose), PAF induced mortality
Experimental: (k) Prevention of Mortality Induced by Platelet Aggregating Factor (PAF)
Male CF1 mice weighing 20-30 gms (Carworth Farms Co.) are fed ad libitum.
Racemic 2-[[[2-(acetyloxy)-3-(octadecyloxy)propoxy]hydroxyphosphinyl]oxy]-N,N,N-trimethylethanaminium hydroxide inner salt hemihydrate (PAF) is concentrated in ethanol at a concentration of 1 mg/ml.At the time of experimentation, PAF is diluted in 0.1% BSA (bovine serum albumin) and administered intravenously at a dose of 0.10 mg/kg one hour after 10 mice are dosed with either vehicle (BSA) or drug. Mortality in mice treated with PAF occurs within 30 minutes after i.v. administration.

**Q.** How did the ED50 turn out when `CC(C)c1ccc2nc3ccc(C(=O)NCCCCCCn4ccnc4)cn3c(=O)c2c1` [Example 31, 2-(1-methylethyl)-N-[6-(1H-imidazol-1-yl)hexyl]-11-oxo-11H-pyrido[2,1-b]quinazoline-8-carboxamide] was run?
**A.** 17 mg/kg
